From patent US20230357162A1, “COMPOUNDS, COMPOSITIONS AND METHODS” (Denali Therapeutics Inc., priority 2020, published 2023)

Tested on: IL-1β secretion, THP-1 cells
Experiment: IL-1β secretion assay in PMA-differentiated THP-1 cells stimulated with LPS and nigericin (ELISA readout)
Type: cell-based
Settings: Homo sapiens, THP-1, inhibition of IL-1β secretion, 25 ng/mL LPS then nigericin
In short: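 THP-1 cells differentiated with 5 ng/mL PMA for 40 h, primed in serum-free medium with 25 ng/mL LPS for 2 h, then compound (0.5% DMSO) for 1 h before nigericin for 2 h at 37°C. Supernatant IL-1β quantified by ELISA; normalized to high (LPS + 5 µM nigericin) and low (LPS only) controls.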

SMILES | IC50 (class column of Table 3) [µM] | IC50 (numeric column of Table 3) [µM]
COc1c(Br)ccc2c(=O)n(CC(=O)Nc3ncc(F)cn3)nc(Cl)c12 [Example 141, 2-(6-bromo-4-chloro-5-methoxy-1-oxophthalazin-2-yl)-N-(5-fluoropyrimidin-2-yl)acetamide] | < 10 | 1.2
N#C[C@H]1C[C@@H](Oc2nn(CC(=O)Nc3ncc(F)cn3)c(=O)c3ccc(Br)cc23)C1 [Example 171, 2-[6-bromo-4-(3-cis-cyanocyclobutyl)oxy-1-oxophthalazin-2-yl]-N-(5-fluoropyrimidin-2-yl)acetamide] | < 10 | 5.85
O=C(Cn1nc(OC2CC2)c2cc(Br)ccc2c1=O)Nc1ncc(F)cn1 [Example 150, 2-(6-bromo-4-cyclopropyloxy-1-oxophthalazin-2-yl)-N-(5-fluoropyrimidin-2-yl)acetamide] | < 10 | 0.127
N#Cc1cnc(NC(=O)Cn2nc(OC3CC3)c3cc(Br)ccc3c2=O)c(F)c1 [Example 151] | < 10 | 0.491
CC(C)c1nn(CC(=O)Nc2ncc(F)cc2C#N)c(=O)c2ccc(Br)cc12 [Example 114, 2-(6-bromo-1-oxo-4-propan-2-ylphthalazin-2-yl)-N-(3-cyano-5-fluoropyridin-2-yl)acetamide] | < 10 | 1.77
O=C(Cn1nc(CF)c2c(F)c(Br)ccc2c1=O)Nc1ncc(F)cn1 [Example 148, 2-[6-bromo-5-fluoro-4-(fluoromethyl)-1-oxophthalazin-2-yl]-N-(5-fluoropyrimidin-2-yl)acetamide] | < 10 | 0.097
N#Cc1cnc(NC(=O)Cn2nc(C(F)F)c3c(F)c(Br)ccc3c2=O)nc1 [Example 133] | < 10 | 0.109
CC(C)c1nn(CC(=O)Nc2ncc(Cl)cn2)c(=O)c2ccc(Br)cc12 [Example 120, 2-(6-bromo-1-oxo-4-propan-2-ylphthalazin-2-yl)-N-(5-chloropyrimidin-2-yl)acetamide] | < 10 | 0.025
O=C(Cn1nc(C(F)F)c2c(F)c(C3CC3)ccc2c1=O)Nc1ncc(F)cn1 [Example 184, 2-[6-cyclopropyl-4-(difluoromethyl)-5-fluoro-1-oxophthalazin-2-yl]-N-(5-fluoropyrimidin-2-yl)acetamide] | < 10 | 0.179
CC(Oc1nn(CC(=O)Nc2ncc(F)cn2)c(=O)c2ccc(Br)cc12)C1CC1 (centres unmarked) [Example 169] | < 10 | 2.29
O=C(Cn1nc(C(F)F)c2cc(Br)ccc2c1=S)Nc1ncc(F)cn1 [Example 179, 2-[6-bromo-4-(difluoromethyl)-1-thioxophthalazin-2-yl]-N-(5-fluoropyrimidin-2-yl)acetamide] | < 10 | 0.486
CC(F)c1nn(CC(=O)Nc2ncccn2)c(=O)c2ccc(Br)cc12 (centres unmarked) [Example 80, 2-[6-bromo-4-(1-fluoroethyl)-1-oxo-phthalazin-2-yl]-N-pyrimidin-2-yl-acetamide] | < 10 | 0.197

Further lines, results first:

IC50 (class column of Table 3) [µM] | IC50 (numeric column of Table 3) [µM] | SMILES
< 10 | 4.6 | CC(C)c1nn(CC(=O)Nc2cc(C(F)(F)F)nn2C)c(=O)c2ccc(Br)cc12 [Example 116, 2-(6-bromo-1-oxo-4-propan-2-ylphthalazin-2-yl)-N-[2-methyl-5-(trifluoromethyl)pyrazol-3-yl]acetamide]
< 10 | 3.05 | CC(C)c1nn(CC(=O)NC2CN(C(=O)OC(C)(C)C)CC(F)(F)C2)c(=O)c2ccc(Br)cc12 (centres unmarked) [Example 10, tert-Butyl-5-[[2-(6-bromo-4-isopropyl-1-oxo-phthalazin-2-yl)acetyl]amino]-3,3-difluoro-piperidine-1-carboxylate]
< 10 | 0.952 | CC(C)c1nn(CC(=O)Nc2cccnn2)c(=O)c2ccc(Br)cc12 [Example 70, 2-(6-bromo-1-oxo-4-propan-2-ylphthalazin-2-yl)-N-pyridazin-3-ylacetamide]
< 10 | 1.51 | CO[C@H]1C[C@H](NC(=O)Cn2nc(C(C)C)c3cc(Br)ccc3c2=O)C1 [Example 78, 2-(6-bromo-1-oxo-4-propan-2-ylphthalazin-2-yl)-N-(3-trans-methoxycyclobutyl)acet amide]
< 10 | 1.06 | CC(C)c1nn(CC(=O)Nc2nc(F)ccc2F)c(=O)c2ccc(Br)cc12 [Example 40, 2-(6-bromo-1-oxo-4-propan-2-ylphthalazin-2-yl)-N-(3,6-difluoropyridin-2-yl)acetamide]
< 10 | 1.41 | CC(C)c1nn(CC(=O)NC2CCOC(C)(C)C2)c(=O)c2ccc(Br)cc12 (centres unmarked) [Example 60, 2-(6-bromo-1-oxo-4-propan-2-ylphthalazin-2-yl)-N-(2,2-dimethyloxan-4-yl)acetamide]
< 10 | 4.09 | CC(C)c1nn(CC(=O)Nc2cnn(C3CCC3)c2)c(=O)c2ccc(Br)cc12 [Example 48, 2-(6-bromo-1-oxo-4-propan-2-ylphthalazin-2-yl)-N-(1-cyclobutylpyrazol-4-yl)acetamide]
< 10 | 0.61 | CCN1CCC[C@@H](NC(=O)Cn2nc(C(C)C)c3cc(Cl)ccc3c2=O)C1 [Example 79, 2-(6-chloro-1-oxo-4-propan-2-ylphthalazin-2-yl)-N-[(3R)-1-ethylpiperidin-3-yl]acetamide]
< 10 | 5.81 | CCN1CCCC1CNC(=O)Cn1nc(C(C)C)c2cc(Br)ccc2c1=O (centres unmarked) [Example 109, 2-(6-bromo-1-oxo-4-propan-2-ylphthalazin-2-yl)-N-[(1-ethylpyrrolidin-2-yl)methyl]acetamide]
< 10 | 3.06 | CC(C)c1nn(CC(=O)NC2CCCOC2)c(=O)c2ccc(Br)cc12 (centres unmarked) [Example 125, 2-(6-bromo-1-oxo-4-propan-2-ylphthalazin-2-yl)-N-(oxan-3-yl)acetamide]
< 10 | 0.176 | CC(C)c1nn(CC(=O)Nc2ccncn2)c(=O)c2ccc(Br)cc12 [Example 33, 2-(6-bromo-1-oxo-4-propan-2-ylphthalazin-2-yl)-N-pyrimidin-4-ylacetamide]
< 10 | 4.23 | CC1CC(NC(=O)Cn2nc(C(C)C)c3cc(Br)ccc3c2=O)CCO1 (centres unmarked) [Example 43, 2-(6-bromo-1-oxo-4-propan-2-ylphthalazin-2-yl)-N-(2-methyloxan-4-yl)acetamide]
< 10 | 1.35 | CC(C)c1nn(CC(=O)Nc2nccc(C(F)(F)F)n2)c(=O)c2ccc(Br)cc12 [Example 110, 2-(6-bromo-1-oxo-4-propan-2-ylphthalazin-2-yl)-N-[4-(trifluoromethyl)pyrimidin-2-yl]acetamide]
< 10 | 3.74 | CC(C)c1nn(CC(=O)NCC2CCOCC2)c(=O)c2ccc(Br)cc12 [Example 74, 2-(6-bromo-1-oxo-4-propan-2-ylphthalazin-2-yl)-N-(oxan-4-ylmethyl)acetamide]
< 10 | 0.046 | CC(C)c1nn(CC(=O)N[C@@H]2CCCN(C3CC3)C2)c(=O)c2ccc(Br)cc12 [Example 5, (R)(6-Bromo-4-Isopropyl-1-Oxophthalazin-2(1H)-yl)-N-(1-Cyclopropylpiperidin-3-yl)Acetamide]
10 to 15 | 12.8 | Cc1cnn(C)c1NC(=O)Cn1nc(C(C)C)c2cc(Br)ccc2c1=O [Example 63, 2-(6-bromo-1-oxo-4-propan-2-ylphthalazin-2-yl)-N-(2,4-dimethylpyrazol-3-yl)acetamide]
